The target in the assay is recombinant human His6-USP1/His6-UAF1 composite protein (Homo sapiens (Human), UniProt O94782). In words: USP1 enzyme activity detection (Ub-Rho fluorescence). Format: biochemical. Conditions: USP1/UAF1, Ub-Rho substrate 300 nM, 1 hour pre-incubation; read-out: IC50 (enzymatic inhibition of USP1).
Chain of recombinant human His6-USP1/His6-UAF1 composite protein (O94782 whole entry): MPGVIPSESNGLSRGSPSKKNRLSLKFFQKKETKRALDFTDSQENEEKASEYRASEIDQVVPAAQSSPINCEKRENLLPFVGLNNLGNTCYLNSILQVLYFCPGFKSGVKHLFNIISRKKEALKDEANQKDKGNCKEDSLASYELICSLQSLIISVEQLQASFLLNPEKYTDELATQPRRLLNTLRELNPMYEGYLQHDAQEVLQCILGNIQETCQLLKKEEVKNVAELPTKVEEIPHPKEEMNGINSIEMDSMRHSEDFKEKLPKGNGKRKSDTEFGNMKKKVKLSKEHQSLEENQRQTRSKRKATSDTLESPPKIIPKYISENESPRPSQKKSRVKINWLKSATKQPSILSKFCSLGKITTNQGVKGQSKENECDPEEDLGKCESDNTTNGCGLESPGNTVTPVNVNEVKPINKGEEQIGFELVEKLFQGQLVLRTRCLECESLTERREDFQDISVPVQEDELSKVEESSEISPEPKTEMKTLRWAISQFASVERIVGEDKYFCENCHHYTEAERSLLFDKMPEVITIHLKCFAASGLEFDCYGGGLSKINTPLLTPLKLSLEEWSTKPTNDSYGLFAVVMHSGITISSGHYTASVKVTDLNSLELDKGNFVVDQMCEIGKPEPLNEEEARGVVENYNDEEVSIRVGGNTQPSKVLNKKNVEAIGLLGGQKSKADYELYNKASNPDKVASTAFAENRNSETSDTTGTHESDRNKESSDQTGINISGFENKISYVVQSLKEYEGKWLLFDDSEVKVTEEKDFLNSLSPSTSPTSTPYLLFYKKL
Chain of recombinant human His6-USP1/His6-UAF1 composite protein (Q8TAF3 whole entry partner): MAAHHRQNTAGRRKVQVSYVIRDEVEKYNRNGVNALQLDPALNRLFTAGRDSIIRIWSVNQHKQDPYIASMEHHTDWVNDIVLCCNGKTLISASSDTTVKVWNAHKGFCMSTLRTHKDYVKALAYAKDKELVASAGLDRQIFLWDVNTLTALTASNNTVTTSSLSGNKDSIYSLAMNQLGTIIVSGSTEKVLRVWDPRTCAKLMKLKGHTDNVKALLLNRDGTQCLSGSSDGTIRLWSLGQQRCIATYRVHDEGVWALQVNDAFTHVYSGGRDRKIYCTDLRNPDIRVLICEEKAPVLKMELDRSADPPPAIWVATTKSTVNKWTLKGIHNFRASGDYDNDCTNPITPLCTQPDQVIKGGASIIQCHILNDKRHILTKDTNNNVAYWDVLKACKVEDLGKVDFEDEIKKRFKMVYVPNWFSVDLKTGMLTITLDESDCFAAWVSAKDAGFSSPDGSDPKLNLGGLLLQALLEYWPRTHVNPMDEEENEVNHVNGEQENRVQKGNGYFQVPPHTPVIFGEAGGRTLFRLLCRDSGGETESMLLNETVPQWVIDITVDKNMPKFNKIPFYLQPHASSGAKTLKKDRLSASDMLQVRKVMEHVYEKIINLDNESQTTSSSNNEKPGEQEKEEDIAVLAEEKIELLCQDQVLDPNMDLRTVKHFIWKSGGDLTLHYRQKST
Description: USPli compounds were screened by USP1 enzyme activity detection experiment.
1.1 Experimental materials: recombinant human His6-USP1/His6-UAF1 composite protein. (R&D, catalog number E-568-050): Ubiquitin rhodamine 110 (Ub-Rho) (R&D, catalog number U-555-050); Fluorescent 384-well plate (Perkin Elmer, Art. No. 6007279).
1.2 Test sample: Compounds of table 3 in this application, whose structural formulae and preparation methods are shown in the above examples.
Using Equation (I) to fit data in Excel to obtain the inhibition value;
[formula] • wherein, the maximum signal value represents the luminous signal intensity of the positive control hole without adding the compound of the application; the minimum signal value represents the luminous signal intensity of the negative control hole without enzyme; and the target signal value represents the luminous signal intensity of the Test samples; and • fitting the data in XL-Fit with Equation (II) to obtain IC50 value:
[formula] • wherein Y is the inhibition rate, X is the concentration of the compound; Bottom is the lowest inhibition rate; Top is the highest inhibition rate; and HillSlope is the slope.
The term IC50 denotes the concentration at which inhibition is half-maximal. Take `COc1ncnc(C2CC2)c1-c1ncc2c3ccccc3n(Cc3ccc(-c4nc(C(F)(F)F)cn4C)cc3)c2n1` [Compound 1, 2-(4-cyclopropyl-6-methoxypyrimidin-5-yl)-9-(4-(1-methyl-4-(trifluoromethyl)-1H-imidazol-2-yl)benzyl)-9H-pyrimido[4,5-b]indole]: the 50% inhibitory concentration (IC50) stood at 4.04 nM.
As to `COc1ncnc(C2CC2)c1-c1ncc2c3cn(C)nc3n(Cc3cc(F)c(-c4nc(C(F)(F)F)c5n4CCC5)c(F)c3)c2n1` [Compound 144], the half-inhibitory concentration (IC50) is 3.17 nM.
Consider `COc1ncnc(C2CC2)c1-c1ncc2c3ccccc3n(Cc3ccc(-c4nc(C(F)(F)F)cn4C(C)C)nc3)c2n1` [Compound 16], for which the IC50 is 7.55 nM.
In the case of `COc1ncnc(C2CC2)c1-c1ncc2c3cc(S(C)(=O)=O)ccc3n(Cc3ccc(-c4nc(C(F)(F)F)cn4C)cc3)c2n1` [Compound 37], the IC50 was found to be 58 nM.
Then `COc1ncnc(C2CC2)c1-c1ncc2c3ccc(S(N)(=O)=O)cc3n(Cc3ccc(-c4nc(C(F)(F)F)cn4C)cc3)c2n1` [Compound 30], with 5.71 nM.
For the compound `CN1CCc2cccc(-c3ncc4c5ccncc5n(Cc5ccc(-c6nc(C(F)(F)F)cn6C)cc5)c4n3)c21` [Compound 84], the half-inhibitory concentration (IC50) is 59 nM.
To `COc1ncnc(C2CC2)c1-c1ncc2c3ccc(C#N)cc3n(Cc3cc(O)c4c(c3)OCCn3cc(C(F)(F)F)nc3-4)c2n1` [Compound 77] belongs 99.1 nM; to `COc1ncnc(C2CC2)c1-c1ncc2c3ccc(C(F)(F)F)cc3n(Cc3ccc(-c4nc(C(F)(F)F)cn4C(C)C)cc3)c2n1` [Compound 8, 2-(4-cyclopropyl-6-methoxypyrimidin-5-yl)-9-(4-(1-isopropyl-4-(trifluoromethyl)-1H-imidazo 1-2-yl)benzyl)-7-(trifluoroethyl)-9H-pyrimido[4,5-b]indole], 21 nM; to `COc1ncnc(C2CC2)c1-c1ncc2c3ncccc3n(Cc3ccc(-c4nc(C(F)(F)F)cn4C(C)C)cc3)c2n1` [Compound 3, 2-(4-cyclopropyl-6-methoxypyrimidin-5-yl)-9-(4-(1-isopropyl-4-(trifluoromethyl)-1H-imidazo 1-2-yl)benzyl)-9H-pyridino[2′,3′: 4,5]pyrrolo[2,3-d]pyrimidine], 5.55 nM.
Then `COc1ncnc(C2CC2)c1-c1ncc2c3cccc(C#N)c3n(Cc3ccc(-c4nc(C(F)(F)F)cn4C)cc3)c2n1` [Compound 26], with 11.5 nM.
To `COc1ncnc(C2CC2)c1-c1ncc2c3cccnc3n(Cc3ccc4c(c3)CCCn3cc(C(F)(F)F)nc3-4)c2n1` [Compound 63] belongs 2.74 nM.
With `COc1ncnc(C2CC2)c1-c1ncc2c3ccccc3n(Cc3ccc(-n4nc(C(F)(F)F)cc4C)cc3)c2n1` [Compound 17], the half-inhibitory concentration (IC50) came to 9.28 nM.
To `COc1ncnc(C2CC2)c1-c1ncc2c3ccc(P4(=O)CCCC4)cc3n(Cc3ccc(-c4nc(C(F)(F)F)cn4C(C)C)cc3)c2n1` [Compound 109] belongs 11.9 nM.
To `COc1ncnc(C2CC2)c1-c1ncc2c3ccc(C#N)cc3n(Cc3cc4c(cn3)-c3nc(C(F)(F)F)cn3CCC4)c2n1` [Compound 119] belongs 17.8 nM; to `COc1ncnc(C2CC2)c1-c1ncc2c3c(C(N)=O)cccc3n(Cc3ccc(-c4nc(C(F)(F)F)cn4C)cc3)c2n1` [Compound 47], 5.26 nM.
Then `COc1ncnc(C2CC2)c1-c1ncc2c3ccc(C#N)cc3n(Cc3ccc(-c4nc(C(F)(F)F)cn4C)cc3)c2n1` [Compound 21], with 4.39 nM; and `COc1ncnc(C2CC2)c1-c1ncc2c3ccc(C(F)(F)F)cc3n(Cc3ccc(-c4nc(C(F)(F)F)cn4C)cc3)c2n1` [Compound 41], with 35.2 nM; and `CC(C)c1ccccc1-c1ncc2c3ccncc3n(Cc3ccc(-c4nc(C(F)(F)F)cn4C)cc3)c2n1` [Compound 79], with 2.04 nM.
For `COc1ncnc(C2CC2)c1-c1ncc2c3ccc(C)nc3n(Cc3ccc4c(c3)CCCn3cc(C(F)(F)F)nc3-4)c2n1` [Compound 128], the IC50 stood at 4.8 nM.
To `[2H]C([2H])([2H])n1cc2c3cnc(-c4c(OC)ncnc4C4CC4)nc3n(Cc3ccc(-c4nc(C(F)(F)F)cn4C(C)C)c(F)c3)c2n1` [Compound 145] belongs 5.91 nM.
Then `COc1ncnc(C2CC2)c1-c1ncc2c3cn(C)nc3n(Cc3ccc(-c4nc(C(F)(F)F)cn4C)cc3)c2n1` [Compound 108], with 7.52 nM; and `COc1ncnc(C2CC2)c1-c1ncc2c3ccc(N(C(C)C)S(C)(=O)=O)cc3n(Cc3ccc4c(c3)CCCn3cc(C(F)(F)F)nc3-4)c2n1` [Compound 99], with 3.13 nM; and `COc1ncnc(C2CC2)c1-c1ncc2c3ccncc3n(Cc3ccc(-c4nc(C(F)(F)F)c(C)n4C)cc3)c2n1` [Compound 151], with 1 nM.
Then `CNc1ccc2c3cnc(-c4c(OC)ncnc4C4CC4)nc3n(Cc3ccc(-c4nc(C(F)(F)F)cn4C)cc3)c2n1` [Compound 74], with 4.13 nM.
For the compound `COc1ncnc(C2CC2)c1-c1ncc2c3cc(C#N)ccc3n(Cc3ccc(-c4nc(C(F)(F)F)cn4C(C)C)cc3)c2n1` [Compound 12], the concentration for half-maximal inhibition (IC50) worked out at 58.3 nM.
Then `COc1ncnc(C2CC2)c1-c1ncc2c3ccc(C#N)cc3n(Cc3ccc4c(c3)Cn3cc(C(F)(F)F)nc3-4)c2n1` [Compound 70], with 191 nM; and `COc1ncnc(C2CC2)c1-c1ncc2c3ccc(Cl)cc3n(Cc3ccc(-c4nc(C(F)(F)F)cn4C)cc3)c2n1` [Compound 54], with 9.88 nM; and `COc1ncnc(C2CC2)c1-c1ncc2c3ccnc(F)c3n(Cc3ccc(-c4nc(C(F)(F)F)cn4C)cc3)c2n1` [Compound 116], with 6.48 nM.
As for `COc1ncnc(C2CC2)c1-c1ncc2c3cccc(OC)c3n(Cc3ccc(-c4nc(C(F)(F)F)cn4C(C)C)cc3)c2n1` [Compound 46], the IC50 was 3.6 nM.
To `COc1ncnc(C2CC2)c1-c1ncc2c3cnn(C)c3n(Cc3ccc4c(c3)CCCn3cc(C(F)(F)F)nc3-4)c2n1` [Compound 123] belongs 13.7 nM.
To `COc1ncnc(C2CC2)c1-c1ncc2c3cn(C)nc3n(Cc3cc(F)c(-c4nc(C(F)(F)F)cn4C)c(F)c3)c2n1` [Compound 115] belongs 3.03 nM.
To `COc1ncnc(C2CC2)c1-c1ncc2c3ccc(C#N)nc3n(Cc3ccc4c(c3)CCCn3cc(C(F)(F)F)nc3-4)c2n1` [Compound 140] belongs 7.29 nM; to `COc1ncnc(C2CC2)c1-c1ncc2c3ccccc3n(Cc3ccc(-c4nc(C(F)(F)F)cn4C(C)C)cc3)c2n1` [Compound 2, 2-(4-cyclopropyl-6-methoxypyrimidin-5-yl)-9-(4-(1-isopropyl-4-(trifluoromethyl)-1H-imidazo 1-2-yl)benzyl)-9H-pyrimido[4,5-b]indole], 7.55 nM; to `COc1ncnc(C2CC2)c1-c1ncc2c3ccncc3n(Cc3ccc4c(ccn5cc(C(F)(F)F)nc45)c3)c2n1` [Compound 67], 36.1 nM.
Take `COc1ncnc(C2CC2)c1-c1ncc2c3cn[nH]c3n(Cc3ccc(C4NC(C(F)(F)F)=CN4C(C)C)cc3)c2n1` (stereo not shown) [Compound 89]: the 50% inhibitory concentration (IC50) came out at 4.7 nM.
As for `COc1ncnc(C2CC2)c1-c1ncc2c3ccncc3n(Cc3ccc4n3CCCn3cc(C(F)(F)F)nc3-4)c2n1` [Compound 68], the concentration for half-maximal inhibition (IC50) was 39.2 nM.
To `COc1ncnc(C2CC2)c1-c1ncc2c3cccc(F)c3n(Cc3ccc(-c4nc(C(F)(F)F)cn4C(C)C)cc3)c2n1` [Compound 6, 2-(4-cyclopropyl-6-methoxypyrimidin-5-yl)-8-fluoro-9-(4-(1-isopropyl-4-(trifluoromethyl)-1H-imidazol-2-yl)benzyl)-9H-pyrimido[4,5-b]indole] belongs 6.07 nM; to `COc1ncnc(C2CC2)c1-c1ncc2c3ccncc3n(Cc3ccc4c(c3)Cn3cc(C(F)(F)F)nc3-4)c2n1` [Compound 71], 108 nM; to `COc1ncnc(C2CC2)c1-c1ncc2c3c(C#N)cccc3n(Cc3ccc(-c4nc(C(F)(F)F)cn4C)cc3)c2n1` [Compound 39], 29.9 nM.
To `COc1ncnc(C2CC2)c1-c1ncc2c3cccc(Cl)c3n(Cc3ccc(-c4nc(C(F)(F)F)cn4C)cc3)c2n1` [Compound 44] belongs 4.22 nM; to `COc1ncnc(C2CC2)c1-c1ncc2c3ccncc3n(Cc3ccc4c(c3)OCCn3cc(C(F)(F)F)nc3-4)c2n1` [Compound 76], 25.3 nM.
Then `COc1ncnc(C2CC2)c1-c1ncc2c3ccc(N4CC(OC)C4)nc3n(Cc3ccc4c(c3)CCCn3cc(C(F)(F)F)nc3-4)c2n1` [Compound 137], with 1.54 nM; and `COc1ncnc(C2CC2)c1-c1ncc2c3ccc(C(N)=O)cc3n(Cc3ccc(-c4nc(C(F)(F)F)cn4C)cc3)c2n1` [Compound 28], with 5.95 nM.
Turning to `COc1ncnc(C2CC2)c1-c1ncc2c3cccnc3n(Cc3ccc(-c4nc(C(F)(F)F)cn4C(C)C)cc3)c2n1` [Compound 36], the IC50 amounted to 8.98 nM.
For `COc1ccc2c(c1)c1cnc(-c3c(OC)ncnc3C3CC3)nc1n2Cc1ccc(-c2nc(C(F)(F)F)cn2C(C)C)cc1` [Compound 33], the IC50 worked out at 26.1 nM.
To `COc1ncnc(C2CC2)c1-c1ncc2c3cn(C)nc3n(Cc3ccc(-c4nc(C(F)(F)F)sc4C)cc3)c2n1` [Compound 131] belongs 4.68 nM; to `COc1ncnc(C2CC2)c1-c1ncc2c3cn(C)nc3n(Cc3ccc(-c4nc(C(F)(F)F)cs4)cc3)c2n1` [Compound 166], 10.2 nM.
To `COc1ncnc(C2CC2)c1-c1ncc2c3ccc(C#N)cc3n(Cc3ccc(-c4nc(C(F)(F)F)c(C5CC5)n4C)cc3)c2n1` [Compound 164] belongs 12 nM.
To `COc1ncnc(C2CC2)c1-c1ncc2c3cn(C)nc3n(Cc3ccc4c(c3)CCCCn3cc(C(F)(F)F)nc3-4)c2n1` [Compound 138] belongs 1.8 nM; to `COc1ncnc(C2CC2)c1-c1ncc2c3ccc(C#N)cc3n(Cc3ccc4c(c3)COCCn3cc(C(F)(F)F)nc3-4)c2n1` [Compound 92], 25.9 nM; to `COc1ncnc(C2CC2)c1-c1ncc2c3cccnc3n(Cc3ccc4c(c3)Cn3cc(C(F)(F)F)nc3-4)c2n1` [Compound 72], 42.9 nM.
For `CCn1cc(C(F)(F)F)nc1-c1ccc(Cn2c3nc(-c4c(OC)ncnc4C4CC4)ncc3c3cccc(F)c32)cc1` [Compound 35], the IC50 was found to be 9.82 nM.

Values taken from patent US20250368667A1, “USP1 INHIBITOR” (Shanghai Qilu Pharmaceutical Research and Development …, priority 2022, published 2025).
